Source: patent US9867790B2, “Compositions and methods using cuminaldehyde” (NESTEC S.A., priority 2013, dated 2018)
Read-outs that look alike come from different tables or passages of the source.

Experiments:
mice [1] = experiment: short term food intake after a single ingestion in mice (FIG. 5); assay type: in vivo; conditions: vs sham gavage
mice [2] = experiment: gastric emptying after a single ingestion in mice (FIG. 6); assay type: in vivo; conditions: vs sham gavage
TRPA1 [3] = conditions: read-out: EC50 of TRPA1 activation; cited from earlier work
TRPV1 [4] = target: T1, TRPV1 (Homo sapiens, UniProt Q8NER1); conditions: cited from earlier work
T1 construct: expressed in transfected cells
T1 sequence (Q8NER1 whole entry, species assumed): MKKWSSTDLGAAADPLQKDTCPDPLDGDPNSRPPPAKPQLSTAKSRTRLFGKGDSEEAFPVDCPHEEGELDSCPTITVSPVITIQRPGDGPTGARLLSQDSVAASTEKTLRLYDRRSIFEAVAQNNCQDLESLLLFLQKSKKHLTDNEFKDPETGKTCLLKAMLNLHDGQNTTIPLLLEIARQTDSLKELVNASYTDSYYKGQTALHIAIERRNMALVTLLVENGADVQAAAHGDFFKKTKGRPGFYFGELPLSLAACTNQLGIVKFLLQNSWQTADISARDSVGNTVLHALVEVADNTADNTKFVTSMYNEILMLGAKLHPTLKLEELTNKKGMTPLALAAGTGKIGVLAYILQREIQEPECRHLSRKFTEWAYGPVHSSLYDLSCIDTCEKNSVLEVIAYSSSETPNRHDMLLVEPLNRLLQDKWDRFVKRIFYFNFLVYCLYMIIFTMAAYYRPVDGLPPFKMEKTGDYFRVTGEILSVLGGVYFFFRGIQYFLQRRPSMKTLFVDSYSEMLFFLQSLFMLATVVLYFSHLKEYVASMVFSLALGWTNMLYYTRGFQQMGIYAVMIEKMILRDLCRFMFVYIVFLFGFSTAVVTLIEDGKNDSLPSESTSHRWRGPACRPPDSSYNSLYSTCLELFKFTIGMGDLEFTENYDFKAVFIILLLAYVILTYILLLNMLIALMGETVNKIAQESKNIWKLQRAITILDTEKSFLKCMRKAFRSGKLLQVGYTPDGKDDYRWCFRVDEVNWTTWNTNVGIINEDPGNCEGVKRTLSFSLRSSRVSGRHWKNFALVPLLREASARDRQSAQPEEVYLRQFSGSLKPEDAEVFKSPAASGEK

mice [5] = experiment: insulin sensitivity in mice with chronic ingestion (FIG. 4); assay type: in vivo; conditions: mice chronically fed high fat diet containing 0.2 wt %, vs same diet without
mice [6] = experiment: body weight gain in mice with chronic ingestion (FIG. 3); assay type: in vivo; conditions: mice chronically fed high fat diet containing 0.2 wt %, vs same diet without
TRPV1 [7] = target: T1, TRPV1; experiment: in vitro activation of TRPV1 in cells (FIG. 7); assay type: cell-based; conditions: FIG. 7, triangles
TRPA1 [8] = target: T2, TRPA1 (Homo sapiens, UniProt O75762); experiment: desensitization of TRPA1 by pretreatment before cinnamaldehyde (FIGS. 8A, 8B); assay type: cell-based; conditions: applied to cells fifteen minutes before cinnamaldehyde
T2 construct: expressed in transfected cells
T2 sequence (O75762 whole entry, species assumed): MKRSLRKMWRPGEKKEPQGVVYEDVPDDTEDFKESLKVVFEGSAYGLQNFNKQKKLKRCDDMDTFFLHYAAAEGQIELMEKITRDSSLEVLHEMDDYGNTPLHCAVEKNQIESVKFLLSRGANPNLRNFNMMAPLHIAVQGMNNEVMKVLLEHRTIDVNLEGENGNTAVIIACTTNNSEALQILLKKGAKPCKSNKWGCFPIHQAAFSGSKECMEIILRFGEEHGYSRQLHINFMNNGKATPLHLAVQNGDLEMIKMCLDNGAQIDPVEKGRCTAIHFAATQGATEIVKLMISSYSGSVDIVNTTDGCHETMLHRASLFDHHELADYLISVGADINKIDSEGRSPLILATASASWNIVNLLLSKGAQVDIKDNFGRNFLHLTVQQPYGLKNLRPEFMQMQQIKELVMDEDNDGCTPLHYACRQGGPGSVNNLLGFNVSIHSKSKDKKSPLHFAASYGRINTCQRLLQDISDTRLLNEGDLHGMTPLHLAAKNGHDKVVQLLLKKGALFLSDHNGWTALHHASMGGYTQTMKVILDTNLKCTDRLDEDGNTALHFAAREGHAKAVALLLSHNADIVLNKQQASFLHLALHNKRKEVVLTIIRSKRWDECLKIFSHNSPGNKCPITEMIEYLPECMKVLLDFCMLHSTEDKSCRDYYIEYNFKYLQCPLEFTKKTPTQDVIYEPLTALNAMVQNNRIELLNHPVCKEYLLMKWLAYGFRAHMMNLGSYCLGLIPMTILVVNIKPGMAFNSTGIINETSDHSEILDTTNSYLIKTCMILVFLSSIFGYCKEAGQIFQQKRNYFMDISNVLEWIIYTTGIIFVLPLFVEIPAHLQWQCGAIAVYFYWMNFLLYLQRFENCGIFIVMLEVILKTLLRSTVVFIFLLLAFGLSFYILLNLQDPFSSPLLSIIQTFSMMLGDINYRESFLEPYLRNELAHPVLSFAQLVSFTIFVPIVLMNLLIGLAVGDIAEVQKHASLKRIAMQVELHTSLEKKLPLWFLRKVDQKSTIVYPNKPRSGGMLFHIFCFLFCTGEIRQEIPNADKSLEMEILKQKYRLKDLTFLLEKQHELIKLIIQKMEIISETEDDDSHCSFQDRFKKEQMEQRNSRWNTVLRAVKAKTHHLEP
Procedure: (§1) Specifically, cuminaldehyde was applied to cells fifteen minutes before cinnamaldehyde, icilin and capsaicin, which are specific agonists for TRPA1, TRPM8 and TRPV1 cation channels, respectively. After specific agonist application, the cation channel expression was measured. […] The left bars in each graph represent the controls lacking cuminaldehyde pretreatment, the right bars in each graph represent the samples including cuminaldehyde pretreatment.

TRPV1 [9] = target: T1, TRPV1; experiment: desensitization of TRPV1 by pretreatment before capsaicin (FIGS. 8A, 8B); assay type: cell-based; conditions: applied to cells fifteen minutes before capsaicin
Procedure: as §1

TRPM8 [10] = target: T3, TRPM8 (Homo sapiens, UniProt Q7Z2W7); experiment: desensitization of TRPM8 by pretreatment before icilin (FIGS. 8A, 8B); assay type: cell-based; design: host or cells: cells, not specified; conditions: applied to cells fifteen minutes before icilin
T3 sequence (Q7Z2W7 whole entry): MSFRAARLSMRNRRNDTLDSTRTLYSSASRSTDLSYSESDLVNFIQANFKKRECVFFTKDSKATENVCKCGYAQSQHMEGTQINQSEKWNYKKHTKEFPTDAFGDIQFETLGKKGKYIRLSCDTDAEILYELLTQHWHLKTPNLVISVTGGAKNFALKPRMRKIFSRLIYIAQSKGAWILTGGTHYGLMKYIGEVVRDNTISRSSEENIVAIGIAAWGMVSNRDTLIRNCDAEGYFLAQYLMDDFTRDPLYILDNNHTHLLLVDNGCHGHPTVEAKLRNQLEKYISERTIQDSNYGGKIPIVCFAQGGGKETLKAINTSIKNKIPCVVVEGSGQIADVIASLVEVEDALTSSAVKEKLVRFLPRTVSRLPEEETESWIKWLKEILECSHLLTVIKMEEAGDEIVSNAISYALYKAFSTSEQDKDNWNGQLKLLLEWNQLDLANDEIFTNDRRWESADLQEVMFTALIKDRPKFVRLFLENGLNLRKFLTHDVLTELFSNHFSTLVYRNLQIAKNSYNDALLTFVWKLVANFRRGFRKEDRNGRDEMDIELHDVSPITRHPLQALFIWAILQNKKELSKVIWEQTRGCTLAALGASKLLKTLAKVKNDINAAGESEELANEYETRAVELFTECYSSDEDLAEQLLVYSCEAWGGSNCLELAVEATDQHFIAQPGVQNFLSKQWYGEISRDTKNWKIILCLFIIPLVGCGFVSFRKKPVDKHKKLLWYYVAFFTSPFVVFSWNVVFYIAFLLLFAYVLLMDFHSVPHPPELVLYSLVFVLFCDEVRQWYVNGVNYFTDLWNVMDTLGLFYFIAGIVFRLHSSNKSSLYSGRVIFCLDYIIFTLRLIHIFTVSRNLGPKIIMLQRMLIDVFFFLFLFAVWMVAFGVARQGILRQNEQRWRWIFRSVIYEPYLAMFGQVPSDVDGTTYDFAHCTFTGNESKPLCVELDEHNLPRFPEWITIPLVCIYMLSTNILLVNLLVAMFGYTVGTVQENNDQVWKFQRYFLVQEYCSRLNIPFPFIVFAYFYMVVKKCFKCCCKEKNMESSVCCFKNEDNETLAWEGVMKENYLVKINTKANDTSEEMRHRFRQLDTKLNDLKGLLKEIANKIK
Procedure: as §1

TRPM8 [11] = target: T3, TRPM8; experiment: in vitro activation of hTRPM8 in cells (FIG. 7); assay type: cell-based; design: expressed in transfected cells; conditions: FIG. 7, squares
"empty" cells = experiment: in vitro activation of "empty" cells (FIG. 7); assay type: cell-based
TRPA1 [12] = target: T2, TRPA1; experiment: in vitro activation of TRPA1 in cells (FIG. 7); assay type: cell-based

Compound	short term food intake (mice [1])	gastric emptying (mice [2])	EC50 (TRPA1 [3]) [µM]	activation of TRPV1 (TRPV1 [4])	insulin sensitivity (mice [5])	body weight gain (mice [6])	activation of TRPV1 (TRPV1 [7])	desensitization of TRPA1 (TRPA1 [8])	desensitization of TRPV1 (TRPV1 [9])	desensitization of TRPM8 (TRPM8 [10])	activation of hTRPM8 (TRPM8 [11])	activation of "empty" cells ("empty" cells)	activation of TRPA1 (TRPA1 [12]; FIG. 7, diamonds)	efficacy of TRPA1 activation relative to cinnamaldehyde (TRPA1 [12]; relative to known TRPA1 agonist cinnamaldehyde) [%]
O=CC=Cc1ccccc1 [cinnamaldehyde]	reduction in short term food intake	delayed gastric emptying	~60	not	improved insulin sensitivity	gained less weight								
CC(C)c1ccc(C=O)cc1 [cuminaldehyde]							no activation was observed	does not desensitize	does not desensitize	does not desensitize	no activation was observed	no activation was observed	activated TRPA1 (diamonds) in a dose-dependent fashion	140
